Legend:
HBE4 cells = experiment: Cell cycle analysis by flow cytometry, HBE4 cells synchronized at S phase; type: cell-based, human; settings: measured every 2 hrs, vs Scr
Experimental: We then wanted to determine whether piR-L-163 (SEQ ID NO:282) plays a functional role in human bronchial epithelial cells. We treated HBE4 cells as well as primary normal human bronchial epithelial (NHBE) cells with piR-L-163 complementary DNA oligonucleotides (Ant-163) (SEQ ID NO:496) or RNA oligonucleotides (Ant-163R) (SEQ ID NO:497) in the experiment. […] Cell cycle distributions were measured every 2 hrs.
Cell cycle distribution was analyzed by Flow Cytometry (Becton-Dickinson). Cells were synchronized in growth factor-free Keratinocyte-SFM with 2 mM Thymidine (Catalog No. T1895, Sigma-Aldrich) for 24 hrs. Transfection is performed using Lipofectamine™ RNAiMAX (Invitrogen) according to its manual, and the final concentration of annealed oligo RNAs is 400 nM. Four hour after transfection, culture medium was replaced by complete Keratinocyte-SFM supplemented with L-Glutamine, prequalified human recombinant EGF 1-53 and BPE. Cells were harvested at different time points, washed in phosphate-buffer saline (PBS), fixed with ice-cold 70% ethanol, and strained in PI/RNase solution (BD Pharmigen). The samples were analyzed on a FACScan flow cytometer in combination with BD lysis software (Becton-Dickinson).

F-actin and EBP50 = experiment: Binding of p-ERM/moesin with F-actin and EBP50 in IP products of H522 cells; type: cell-based, human; settings: together with Moesin-WT

Row | Substance | cell cycle distribution (HBE4 cells) | binding of moesin with F-actin and EBP50 (F-actin and EBP50)
1 | Ant-163: DNA sequence antisense to piR-L-163, SEQ ID NO:496, 5′-GGTCAGAGAATCAAAGTAACATCATGATAT-3′ (DNA, backbone and methylation of C not given here) | accelerated DNA synthesis and G2-M accumulation | –
2 | piR-L-163: sprRNA, SEQ ID NO:282; piRNA-L aligned to intron 10 of LAMC2; AUAUCAUGAUGUUACUUUGAUUCUCUGACC with 3′ 2′-O-methylation (listed as RNA, chemistry not fully specified; listed as Homo sapiens) | – | enhanced binding with F-actin and EBP50
